According to patent publication US10815222B2, “Compounds for use in the treatment of kinetoplastid infection” (C.N.C.C.S. S.c.a.r.l. COLLEZIONE NAZIONALE DEI COMPOSTI …, priority 2016, dated 2020):

The compounds below were run on Bloodstream form of Trypanosoma brucei, strain Lister 427 (assay: Trypanosoma brucei growth inhibition assay (CellTiter-Glo, 24 h)). Settings: T. Brucei Growth Inibition Assay, class symbols; read-out: T. Brucei GI EC50.
Type: cell-based
Procedure, shortened: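 Bloodstream-form T. brucei Lister 427, 1500 parasites per well in supplemented IMDM with 10% FBS, were exposed to compound (DMSO ≤0.25% final) for 24 h at 37 °C. Viability was measured by CellTiter-Glo luminescence.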
`O=C(Cc1c[nH]c2ccc(O)cc12)N1CCN(CCc2ccccc2)CC1c1ncc(-c2ccc3ccccc3c2)[nH]1` (stereo not drawn) gave an EC50 of 1010 to 5000 nM.

Same assay, conditions: Trypanosoma brucei, read-out: T. Brucei GI EC50
`CCC(=O)CCCN1CCN(C(=O)Oc2ccccc2)C(c2ncc(-c3ccc4ccccc4c3)[nH]2)C1` (stereo not drawn) [phenyl 2-(5-(naphthalen-2-yl)-1H-imidazol-2-yl)-4-(4-oxohexyl)piperazine-1-carboxylate] gave an EC50 of 1010 to 5000 nM.

Same assay, conditions: Trypanosoma brucei; T. Brucei Growth Inibition Assay, class symbols; read-out: T. Brucei GI EC50
With `COc1ccc2nc(C(F)(F)F)n(CC(=O)N3CCN(CCc4csc(C)n4)C[C@H]3c3ncc(-c4cc5ccccc5nc4OC)[nH]3)c2c1` [(S)-2-(6-methoxy-2-(trifluoromethyl)-1H-benzo[d]imidazol-1-yl)-1-(2-(5-(2-methoxyquinolin-3-yl)-1H-imidazol-2-yl)-4-(2-(2-methylthiazol-4-yl)ethyl)piperazin-1-yl)ethan-1-one] the EC50 was < 100 nM. For `COc1ccc2nc(C(F)(F)F)n(CC(=O)N3CCN(CC4CCOC4)C[C@H]3c3nnc(-c4cc5ccccc5nc4OC)[nH]3)c2c1` (stereo partly drawn) [2-(6-methoxy-2-(trifluoromethyl)-1H-benzo[d]imidazol-1-yl)-1-((2S)-2-(5-(2-methoxyquinolin-3-yl)-4H-1,2,4-triazol-3-yl)-4-((tetrahydrofuran-3-yl)methyl)piperazin-1-yl)ethan-1-one], the EC50 was < 100 nM. `Cc1csc(CC(=O)N2CCN(Cc3ccccc3)CC2c2ncc(-c3ccc4ccccc4c3)[nH]2)n1` (stereo not drawn) was tested, and the EC50 was 1010 to 5000 nM. `COc1nc2ccccc2cc1-c1cnc([C@@H]2CN(CC3CCOC3)CCN2C(=O)Cn2c(C)nc3cncnc32)[nH]1` (stereo partly drawn) gave an EC50 of 100 to 500 nM. Work on `COc1ccccc1C(=O)N1CCN(C)CC1c1ncc(-c2ccc3ccccc3c2)[nH]1` (stereo not drawn) yielded an EC50 of 1010 to 5000 nM. With `COc1ccc2nc(C(F)(F)F)n(CC(=O)N3CCC(N(C)Cc4cnccn4)C[C@H]3c3ncc(-c4cc5ccccc5nc4OC)[nH]3)c2c1` (stereo partly drawn) [2-(6-methoxy-2-(trifluoromethyl)-1H-benzo[d]imidazol-1-yl)-1-((2S)-2-(5-(2-methoxyquinolin-3-yl)-1H-imidazol-2-yl)-4-(methyl(pyrazin-2-ylmethyl)amino)piperidin-1-yl)ethan-1-one] the EC50 was < 100 nM. For `COc1ccc2nc(C)n(CC(=O)N3CCN(Cc4cnccn4)C[C@H]3c3ncc(-c4cc5ccccc5nc4OC)[nH]3)c2c1` [(S)-2-(6-methoxy-2-methyl-1H-benzo[d]imidazol-1-yl)-1-(2-(5-(2-methoxyquinolin-3-yl)-1H-imidazol-2-yl)-4-(pyrazin-2-ylmethyl)piperazin-1-yl)ethan-1-one], the EC50 was < 100 nM. `O=C(Cc1n[nH]c2ccccc12)N1CCN(CCc2ccccc2)CC1c1ncc(-c2ccc3ccccc3c2)[nH]1` (stereo not drawn) gave an EC50 of 1010 to 5000 nM. Compound `COc1ccc2nc(C(F)(F)F)n(CC(=O)N3CCN(CC4CCOC4)C[C@H]3c3noc(-c4cc5ccccc5nc4OC)n3)c2c1` (stereo partly drawn) [2-(6-methoxy-2-(trifluoromethyl)-1H-benzo[d]imidazol-1-yl)-1-((2S)-2-(5-(2-methoxyquinolin-3-yl)-1,2,4-oxadiazol-3-yl)-4-((tetrahydrofuran-3-yl)methyl)piperazin-1-yl)ethan-1-one] has an EC50 of 1010 to 5000 nM. With `COc1nc2ccccc2cc1-c1cnc([C@@H]2CN(Cc3cocn3)CCN2C(=O)Cn2c(C(F)(F)F)nc3ccccc32)[nH]1` [(S)-1-(2-(5-(2-methoxyquinolin-3-yl)-1H-imidazol-2-yl)-4-(oxazol-4-ylmethyl)piperazin-1-yl)-2-(2-(trifluoromethyl)-1H-benzo[d]imidazol-1-yl)ethan-1-one] the EC50 was < 100 nM. For `COc1nc2ccccc2cc1-c1cnc([C@@H]2CN(CC3CCOC3)CCN2C(=O)Cn2c(C3CCC3)nc3ccccc32)[nH]1` (stereo partly drawn), the EC50 was 100 to 500 nM. With `COc1ccc2nc(C(F)(F)F)n(CC(=O)N3CC[C@H](N(C)C)C[C@H]3c3ncc(-c4cc5ccccc5nc4OC)[nH]3)c2c1` [1-((2S,4S)-4-(dimethylamino)-2-(5-(2-methoxyquinolin-3-yl)-1H-imidazol-2-yl)piperidin-1-yl)-2-(6-methoxy-2-(trifluoromethyl)-1H-benzo[d]imidazol-1-yl)ethan-1-one] the EC50 was < 100 nM. With `COc1cccc(CCC(=O)N2CCN(CC3CCOC3)CC2c2ncc(-c3cc4ccccc4nc3OC)[nH]2)c1` (stereo not drawn) the EC50 was 1010 to 5000 nM. For `COc1ccc2nc(C(F)(F)F)n(CC(=O)N3CCN(Cc4cnc(C)s4)CCC3c3ncc(-c4cc5ccccc5nc4OC)[nH]3)c2c1` (stereo not drawn), the EC50 was 100 to 500 nM. Work on `COc1ccc2nc(C)n(CC(=O)N3CCN(CC4CCOC4)C[C@H]3c3ncc(-c4cc5ccccc5[nH]4)[nH]3)c2c1` (stereo partly drawn) yielded an EC50 of 1010 to 5000 nM. `CCn1cc(CN2CCC(c3ncc(-c4cc5ccccc5nc4OC)[nH]3)N(C(=O)Cn3c(C(F)(F)F)nc4ccc(OC)cc43)CC2)cn1` (stereo not drawn) showed an EC50 of 510 to 1000 nM. In the case of `COc1nc2ccccc2cc1-c1cnc([C@@H]2CCN(Cc3ccn(C)n3)CCN2C(=O)[C@](OC)(c2ccccc2)C(F)(F)F)[nH]1`, the EC50 is reported as 1010 to 5000 nM. For `COc1ccc2nc(C)n(CC(=O)N3CCN(CC4COC4)CCC3c3ncc(-c4cc5ccccc5nc4OC)[nH]3)c2c1` (stereo not drawn), the EC50 was 510 to 1000 nM. In the case of `COc1ccc2cc(C)n(CC(=O)N3CCN(C)CCC3c3ncc(-c4cc5ccccc5nc4OC)[nH]3)c2c1` (stereo not drawn), the EC50 is reported as 510 to 1000 nM. `COc1ccc2nc(C(F)(F)F)n(CC(=O)N3CCOCC3c3ncc(-c4cc5ccccc5nc4OC)[nH]3)c2c1` (stereo not drawn) showed an EC50 of 100 to 500 nM. For `COc1nc2ccccc2cc1-c1cnc([C@@H]2CN(Cc3cncc(F)c3)CCN2C(=O)Cn2c(C(F)(F)F)nc3ccccc32)[nH]1` [(S)-1-(4-((5-fluoropyridin-3-yl)methyl)-2-(5-(2-methoxyquinolin-3-yl)-1H-imidazol-2-yl)piperazin-1-yl)-2-(2-(trifluoromethyl)-1H-benzo[d]imidazol-1-yl)ethan-1-one], the EC50 was < 100 nM. `CCC(=O)CCCN1CCN(S(=O)(=O)c2ccc3ccccc3c2)C(c2ncc(-c3ccc4ccccc4c3)[nH]2)C1` (stereo not drawn) was tested, and the EC50 was 1010 to 5000 nM. For `CCC(=O)CCCN1CCN(C(=O)Cc2c[nH]c3ccccc23)[C@@H](c2ncc(-c3ccc4ccccc4c3)[nH]2)C1`, the EC50 was 1010 to 5000 nM. With `COc1nc2ccccc2cc1-c1cnc(C2CN(C)CCN2C(=O)Cc2c[nH]c3ncccc23)[nH]1` (stereo not drawn) the EC50 was 1010 to 5000 nM. In the case of `COc1nc2ccccc2cc1-c1cnc([C@@H]2CN(C3CCOCC3)CCN2C(=O)Cn2c(C(F)(F)F)nc3ccccc32)[nH]1` [(S)-1-(2-(5-(2-methoxyquinolin-3-yl)-1H-imidazol-2-yl)-4-(tetrahydro-2H-pyran-4-yl)piperazin-1-yl)-2-(2-(trifluoromethyl)-1H-benzo[d]imidazol-1-yl)ethan-1-one], the EC50 is reported as < 100 nM. With `COc1ccc2nc(C(F)(F)F)n(CC(=O)N3CC[C@H](NCc4ccn(C)n4)C[C@H]3c3ncc(-c4cc5ccccc5nc4OC)[nH]3)c2c1` [2-(6-methoxy-2-(trifluoromethyl)-1H-benzo[d]imidazol-1-yl)-1-((2S,4S)-2-(5-(2-methoxyquinolin-3-yl)-1H-imidazol-2-yl)-4-(((1-methyl-1H-pyrazol-3-yl)methyl)amino)piperidin-1-yl)ethan-1-one] the EC50 was < 100 nM. Compound `COc1ccc2onc(CC(=O)N3CCN(CC4CCOC4)C[C@H]3c3ncc(-c4cc5ccccc5nc4OC)[nH]3)c2c1` (stereo partly drawn) has an EC50 of 100 to 500 nM. `COc1ccc2nc(C(F)(F)F)n(CC(=O)N3CCN(CCc4csc(C)n4)CCC3c3ncc(-c4cc5ccccc5nc4OC)[nH]3)c2c1` (stereo not drawn) gave an EC50 of 100 to 500 nM. With `COc1ccc2nc(C(F)(F)F)n(CC(=O)N3CCN(Cc4ccccn4)CCC3c3ncc(-c4cc5ccccc5nc4OC)[nH]3)c2c1` (stereo not drawn) [2-(6-methoxy-2-(trifluoromethyl)-1H-benzo[d]imidazol-1-yl)-1-(7-(5-(2-methoxyquinolin-3-yl)-1H-imidazol-2-yl)-4-(pyridin-2-ylmethyl)-1,4-diazepan-1-yl)ethan-1-one] the EC50 was < 100 nM. `COc1nc2ccccc2cc1-c1cnc(C2CN(CC3CCOC3)CCN2C(=O)Cn2nnc3ccccc32)[nH]1` (stereo not drawn) gave an EC50 of 510 to 1000 nM. `COc1ccc2nc(C(F)(F)F)n(CC(=O)N3CCN(Cc4cocn4)C[C@H]3c3ncc(-c4cc5ccccc5nc4OC)[nH]3)c2c1` [(S)-2-(6-methoxy-2-(trifluoromethyl)-1H-benzo[d]imidazol-1-yl)-1-(2-(5-(2-methoxyquinolin-3-yl)-1H-imidazol-2-yl)-4-(oxazol-4-ylmethyl)piperazin-1-yl)ethan-1-one] was tested, and the EC50 was < 100 nM. With `COc1nc2ccccc2cc1-c1cnc(C2CN(CC3CCOC3)CCN2C(=O)CN2C(=O)c3ccccc3C2=O)[nH]1` (stereo not drawn) the EC50 was 510 to 1000 nM. Work on `COc1ccc2nc(C(F)(F)F)n(CC(=O)N3CCN(C)CCC3c3ncc(-c4cc5ccccc5nc4OC)[nH]3)c2c1` (stereo not drawn) yielded an EC50 of 510 to 1000 nM. `COc1ccc2nc(C(F)(F)F)n(CC(=O)N3CC[C@H](NC4CCOC4)C[C@H]3c3ncc(-c4cc5ccccc5nc4OC)[nH]3)c2c1` (stereo partly drawn) [2-(6-methoxy-2-(trifluoromethyl)-1H-benzo[d]imidazol-1-yl)-1-((2S,4S)-2-(5-(2-methoxyquinolin-3-yl)-1H-imidazol-2-yl)-4-((tetrahydrofuran-3-yl)amino)piperidin-1-yl)ethan-1-one] was tested, and the EC50 was < 100 nM. In the case of `COc1ccc2nc(C(F)(F)F)n(CC(=O)N3CC[C@H](NC(C)C)C[C@H]3c3ncc(-c4cc5ccccc5nc4OC)[nH]3)c2c1` [1-((2S,4S)-4-(isopropylamino)-2-(5-(2-methoxyquinolin-3-yl)-1H-imidazol-2-yl)piperidin-1-yl)-2-(6-methoxy-2-(trifluoromethyl)-1H-benzo[d]imidazol-1-yl)ethan-1-one], the EC50 is reported as < 100 nM. `COc1ccc2nc(C(F)(F)F)n(CC(=O)N3CCN(Cc4cscn4)CCC3c3ncc(-c4cc5ccccc5nc4OC)[nH]3)c2c1` (stereo not drawn) [2-(6-methoxy-2-(trifluoromethyl)-1H-benzo[d]imidazol-1-yl)-1-(7-(5-(2-methoxyquinolin-3-yl)-1H-imidazol-2-yl)-4-(thiazol-4-ylmethyl)-1,4-diazepan-1-yl)ethan-1-one] was tested, and the EC50 was < 100 nM. Work on `COc1nc2ccccc2cc1-c1cnc(C2CN(CC3CCOC3)CCN2C(=O)c2ccnc3ccccc23)[nH]1` (stereo not drawn) yielded an EC50 of 1010 to 5000 nM. With `COc1ccc2nc(C)n(CC(=O)N3CCN(CC4CCOC4)C[C@H]3c3ncc(-c4ccc5ncccc5c4)[nH]3)c2c1` (stereo partly drawn) the EC50 was 1010 to 5000 nM. For `COc1nc2ccccc2cc1-c1cnc(C2CNCCN2C(=O)Cc2c(C)[nH]c3ccc(F)cc23)[nH]1` (stereo not drawn) [2-(5-fluoro-2-methyl-1H-indol-3-yl)-1-(2-(5-(2-methoxyquinolin-3-yl)-1H-imidazol-2-yl)piperazin-1-yl)ethan-1-one], the EC50 was 1010 to 5000 nM. With `Cn1cc(CC(=O)N2CCN(Cc3ccccc3)CC2c2ncc(-c3ccc4ccccc4c3)[nH]2)c2ccccc21` (stereo not drawn) the EC50 was 1010 to 5000 nM.
